13 compounds from patent publication US8906952B2, “Indole derivative or pharmaceutically acceptable salt thereof, preparation method thereof, and pharmaceutical composition for preventing or treating metabolic diseases containing same as active ingredient” (Korea Research Institute of Bioscience and Biotechnology, priority 2011, dated 2014) can be followed below.

Like-named read-outs stand apart in the source and are kept apart here. A value given as a limit tells only on which side of the number the result lay.

One assay has as its target T1, human DGAT2 (Homo sapiens, UniProt Q96PD7).
T1 construct: made in house; host or cells: sf9 insect cells
T1 sequence (Q96PD7 1-388): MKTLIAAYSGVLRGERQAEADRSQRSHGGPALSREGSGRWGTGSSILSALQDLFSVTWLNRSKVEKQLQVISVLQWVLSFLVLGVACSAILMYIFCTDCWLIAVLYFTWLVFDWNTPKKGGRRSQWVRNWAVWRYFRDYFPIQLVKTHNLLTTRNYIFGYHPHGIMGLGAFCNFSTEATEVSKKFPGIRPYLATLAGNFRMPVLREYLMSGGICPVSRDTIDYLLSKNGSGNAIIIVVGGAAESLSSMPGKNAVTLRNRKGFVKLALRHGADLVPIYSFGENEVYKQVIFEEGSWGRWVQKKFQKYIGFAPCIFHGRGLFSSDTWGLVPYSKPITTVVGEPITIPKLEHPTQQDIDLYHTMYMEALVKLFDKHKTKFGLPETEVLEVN
In words: DGAT enzyme inhibition test, hDGAT2 enzyme from sf9 insect cells (DGAT2 selectivity). It is filed as biochemical. An excerpt: (§1) To investigate inhibitory effect of the compounds of Examples 1-33 against DGAT enzyme activity, DGAT enzyme inhibition and DGAT2 selectivity were investigated using zymogen including:
(§2) 1) hDGAT1 and hDGAT2 enzymes, derived from insect cell overexpressing human DGAT1 and DGAT2 (‘sf9’), respectively,
(§3) To be specific, for the purpose of measuring human-derived DGAT enzyme inhibitory activity, using the zymogen, including enzymes derived from insect cell overexpressing human DGAT1 and DGAT2 (‘sf9’), microsomal protein isolated from human duodenal adenocarcinoma (‘Hutu 80’), and microsomal protein isolated from rat, and according to Coleman et al., (Methods Enzymol., 98-103, 1992), and substrate including 1,2-diacylglycerol(Sigma, D0138) and [^14C]palmitoyl-CoA (Amersham, CFA583), the amount of radiation of [^14C]triacylglycerol produced after enzymatic reaction was measured.
(§4) To be more specific, to the reaction solution containing 175 mM Tris-HCl (pH 8.0), 20 μl bovine serum albumin (10 mg/ml), 100 mM magnesium chloride, 30 μM [^14C]palmitoyl CoA (0.02 μCi, Amersham) and 200 μM 1,2-dioleoylglycerol, reagent dissolved in dimethylsulfoxide (10.0 μl) was added. After introducing 100 to 200 μg isolated microsomal protein and allowing the same to react at 25° C. for 10 min, the reaction was stopped by adding 1.5 ml stop solution (2-propanol:heptane:water=80:20:2, v:v:v). To isolate the product of the reaction (i.e., [^14C]triacylglycerol), 1 ml heptane and 0.5 ml distilled water were added and then decocted. After taking 1 ml supernatant, 2 ml alkaline ethanol solution (ethanol:0.5 N sodium hydroxide:water=50:10:40, v:v:v) were added and then decocted. After taking 0.65 ml supernatant from the decoction, the amount of radiation was measured with liquid scintillation counter (LSC). The DGAT inhibitory activity was calculated with Mathematical Expression 1 below:
(§5) T denotes cpm of experimental group in which the enzymatic reaction solution was treated with the sample,
(§6) C denotes cpm of control group in which the enzymatic reaction solution was not treated with the sample, and
(§7) B denotes cpm of control group treated with the sample without zymogen.

For a further assay, the target named is T2, human DGAT1 (Homo sapiens, UniProt O75907).
T2 construct: made in house; host or cells: sf9 insect cells
T2 sequence (O75907 1-488): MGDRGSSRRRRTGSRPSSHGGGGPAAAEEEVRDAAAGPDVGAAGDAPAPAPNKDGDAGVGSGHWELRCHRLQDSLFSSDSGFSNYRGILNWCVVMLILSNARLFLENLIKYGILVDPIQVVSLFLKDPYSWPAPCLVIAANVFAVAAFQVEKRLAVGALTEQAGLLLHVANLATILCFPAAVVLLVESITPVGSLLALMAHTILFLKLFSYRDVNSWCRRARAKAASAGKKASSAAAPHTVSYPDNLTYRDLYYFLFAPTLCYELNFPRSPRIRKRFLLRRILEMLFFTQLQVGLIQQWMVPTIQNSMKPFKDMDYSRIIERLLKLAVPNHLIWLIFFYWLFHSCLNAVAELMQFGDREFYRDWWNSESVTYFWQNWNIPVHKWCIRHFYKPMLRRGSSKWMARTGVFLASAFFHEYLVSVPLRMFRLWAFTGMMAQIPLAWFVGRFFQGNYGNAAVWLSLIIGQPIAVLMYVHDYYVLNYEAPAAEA
Briefly: DGAT enzyme inhibition test, hDGAT1 enzyme from sf9 insect cells. It is filed as biochemical. Conditions: enzyme from sf9 cells overexpressing hDGAT1; read-out: hDGAT-1 (sf9) IC50.
Description: as §1, §2, §3, §4, §5, §6, §7

The next assay has as its system HepG2 cells. In words: DGAT inhibitory effect in HepG2 cells (triglyceride production from [14C]glycerol). Conditions: Homo sapiens; for activity at 10 µM: HepG2, 6 h, DMSO control = 100, read-out: Triglyceride production rate (%)/HepG2 cells at 10 μM; for inhibition at 10 µM: HepG2, 10 μM, read-out: biosynthesis inhibition rate of triglyceride. The format is cell-based. On the procedure:
To investigate inhibition effect on intracellular DGAT enzyme activity of the compounds obtained in Examples 1-51, intracellular DGAT enzyme activity was measured using human-derived liver HepG2 cells.
HepG2 cells were purchased from ATCC, and cultured in 37° C., 5% CO2 incubator including minimum essential medium (2 mM L-glutamine, earle's BSS adjusted to contain 1.5 g/L sodium bicarbonate, 0.1 mM nonessential amino acids, and 1 mM sodium pyruvate) added with 10% fetal bovine serum (FBS) and 1% antibiotic (100 U/ml penicillin and 100 µg/ml streptomycin).
The intracellular DGAT enzyme activity was measured based on an amount of triglycerides produced in the cultured HepG2 cells, by adding 10 μM enzyme inhibitor compounds obtained in Examples 1-51, respectively, and then determining the effect of the enzyme inhibitors according to reduction rate of the triglyceride production.
Specifically, cells were seeded 1×10^6 cell/ml per well of the 24 well culture plate, and 24 hours after incubation, medium was exchanged with FBS-free DMEM medium, and sample of 0.2 mCi [^14C]glycerol (Amersham) was added as substrate, and the reaction was allowed to occur for 6 hr. The induced production of triglyceride was catalyzed by the DGAT enzyme, and DGAT enzyme activity was determined based on the amount of production of triglyceride which was measured based on the amount of radiation. The sample was dissolved in dimethylsulfoxide (DMSO) to be used, and the control group in the triglyceride production reaction was reacted with dimethylsulfoxide only (i.e., without sample), and the amount of the triglyceride production rate was set to 100.
After the reaction completed, the substrate [^14C]glycerol which was either not absorbed into cells or not used for the reaction, were removed with phosphate-buffer-saline (PBS), and 0.5 ml extraction solvent (hexane:isopropanol=3:2, v:v) was added to extract full fat containing triglycerides. With 0.5 ml extraction solvent, extract was obtained two times for 30 min each, and 1 ml of the extract was concentrated with nitrogen gas. After removing the extraction solvent, the total fat was dissolved in organic solvent (chloroform:methanol=2:1) and spotted with thin-layer chromatography (TLC:silica gel 60F254, thickness: 0.5 mm, Merck) on the developing solvent (hexane:diethyl ether:acetic acid=80:20:1, v: v: v). Triglycerides (Rf value: 0.4) were isolated on TLC, and after exposing the TLC plate to the film with photosensitivity to radiation energy (imaging plate' Fujifilm, BMS-MS 2040) for 3 hr, the amount of [^14C] radiation of triglyceride was measured by imaging analysis (FLA 7000). The remaining cells after the extraction were dissolved in 0.3 ml 0.1 N sodium hydroxide for use in the measurement of protein concentration of the cells used for the reaction.
The experimental errors among the respective experimental groups were compensated with the experimental value which was obtained by dividing the measured radiation of triglyceride by protein concentration, and the production rate of triglyceride according to the respective compounds of Examples 1-51 are tabulated below.

[1] abbreviates: 10 μM, enzyme from sf9 cells overexpressing hDGAT2, read-out: hDGAT-2 (sf9) inhibition rate(%)at 10 μM.
[2] abbreviates: concentration of 10 μM, read-out: hDGAT2 inhibition.

In general, inhibition refers to the relative decrease from the control value, in per cent. By IC50 is commonly meant the concentration at which inhibition is half-maximal. As to `CC(C)=CCn1cc(/C=C/C(=O)N(NC(=O)c2cccc(C)c2)C(C)C)c2ccccc21` [Example 50, (E)-N′-isopropyl-3-methyl-N′-(3-(1-(3-methylbut-2-enyl)-1H-indol-3-yl)acryloyl)benzohydrazide], the inhibition at 10 µM at human DGAT2 (setting [1]) was determined as 39%. The half-maximal inhibitory concentration (IC50) at human DGAT1 amounted to 4.6 µM.
Consider `Cc1ccc2c(/C=C/C(=O)N(NC(=O)c3cccc(F)c3)C(C)C)cn(C(=O)OC(C)(C)C)c2c1` [Example 37, (E)-tert-butyl 3-(3-(2-(3-fluorobenzoyl)-1-isopropylhydrazinyl)-3-oxoprop-1-enyl)-6-methyl-1H-indole-1-carboxylate], for which, in the assay with HepG2 cells, the activity at 10 µM amounted to 79.2% and the inhibition at 10 µM fell in the range of 20 to 30%. For the same compound, the inhibition at 10 µM at human DGAT2 (setting [1]) worked out at 2.9%. Also, the IC50 at human DGAT1 was over 100 µM.
`CC(C)N(NC(=O)c1cccc(Cl)c1)C(=O)/C=C/c1cn(C(=O)OC(C)(C)C)c2ccccc12` [Example 45, (E)-tert-butyl 3-(3-(2-(3-chlorobenzoyl)-1-isopropylhydrazinyl)-3-oxoprop-1-enyl)-1H-indole-1-carboxylate]: the activity at 10 µM in the assay with HepG2 cells came out at 97.9%. Besides, on human DGAT2 (setting [1]), the inhibition at 10 µM was 28.7%. Also, the IC50 on human DGAT1 was 2.2 µM.
Consider `CC(C)N(NC(=O)c1ccncc1)C(=O)/C=C/c1cn(C(=O)OC(C)(C)C)c2ccccc12` [Example 43, (E)-tert-butyl 3-(3-(2-isonicotinoyl-1-isopropylhydrazinyl)-3-oxoprop-1-enyl)-1H-indole-1-carboxylate], for which the activity at 10 µM in the assay with HepG2 cells worked out at 81.3%. For the same compound, the figures for the inhibition at 10 µM on human DGAT2 (setting [1]) and on human DGAT2 (setting [2]) were 0.6% and under 11%, respectively. Further, the half-inhibitory concentration (IC50) on human DGAT1 amounted to 4 µM.
`CCn1cc(/C=C/C(=O)N(NC(=O)c2cccc(F)c2)C(C)C)c2ccccc21` [Example 41, (E)-N′-(3-(1-ethyl-1H-indol-3-yl)acryloyl)-3-fluoro-N′-isopropylbenzohydrazide]: the activity at 10 µM in the assay with HepG2 cells stood at 79.4%. For the same compound, the inhibition at 10 µM with HepG2 cells is 20 to 30%; on human DGAT2 (setting [1]), 20.3%. Besides, the 50% inhibitory concentration (IC50) at human DGAT1 came out at 8.1 µM.
Consider `CC(C)N(NC(=O)c1cccc(F)c1)C(=O)/C=C/c1cn(C(=O)OC(C)(C)C)c2cc(F)ccc12` [Example 38, (E)-tert-butyl 6-fluoro-3-(3-(2-(3-fluorobenzoyl)-1-isopropylhydrazinyl)-3-oxoprop-1-enyl)-1H-indole-1-carboxylate], for which the activity at 10 µM with HepG2 cells worked out at 85.7%. Moreover, the inhibition at 10 µM at human DGAT2 (setting [1]) is under 0%. Besides, at human DGAT1, the IC50 was over 100 µM.
Take `CCCn1cc(/C=C/C(=O)N(NC(=O)c2cccc(F)c2)C(C)C)c2ccccc21` [Example 42, (E)-3-fluoro-N′-isopropyl-N′-(3-(1-propyl-1H-indol-3-yl)acryloyl)benzohydrazide]: the activity at 10 µM in the assay on HepG2 cells is 79.9%. The results for the inhibition at 10 µM in the assay with HepG2 cells and on human DGAT2 (setting [1]) were 20 to 30% and 32.4%, respectively. In addition, the IC50 at human DGAT1 was 3.6 µM.
On to `CC(C)CCn1cc(/C=C/C(=O)N(NC(=O)c2cccc(F)c2)C(C)C)c2ccccc21` [Example 39, (E)-3-fluoro-N′-(3-(1-isopentyl-1H-indol-3-yl)acryloyl)-N′-isopropylbenzohydrazide], for which the activity at 10 µM with HepG2 cells came to 50.8%. The inhibition at 10 µM at human DGAT2 (setting [1]) turned out to be 42.3%. On human DGAT1, the IC50 is 1.8 µM.
With `Cc1ccc2c(c1)c(/C=C/C(=O)N(NC(=O)c1cccc(F)c1)C(C)C)cn2C(=O)OC(C)(C)C` [Example 35, (E)-tert-butyl 3-(3-(2-(3-fluorobenzoyl)-1-isopropylhydrazinyl)-3-oxoprop-1-enyl)-5-methyl-1H-indole-1-carboxylate], the activity at 10 µM in the assay with HepG2 cells amounted to 57.6%. The inhibition at 10 µM was 2% at human DGAT2 (setting [1]) and under 11% on human DGAT2 (setting [2]). Moreover, the IC50 on human DGAT1 came out at 3.2 µM.
Regarding `CC(C)c1ccc2c(/C=C/C(=O)N(NC(=O)c3cccc(F)c3)C(C)C)cn(C(=O)OC(C)(C)C)c2c1` [Example 36, (E)-tert-butyl 3-(3-(2-(3-fluorobenzoyl)-1-isopropylhydrazinyl)-3-oxoprop-1-enyl)-6-isopropyl-1H-indole-1-carboxylate], in the assay with HepG2 cells, the activity at 10 µM turned out to be 75% and the inhibition at 10 µM fell in the range of 20 to 30%. Besides, at human DGAT2 (setting [1]), the inhibition at 10 µM was found to be 3.6%. In addition, at human DGAT1, the IC50 was over 100 µM.
On to `CC(C)N(NC(=O)c1cccc(F)c1)C(=O)/C=C/c1cn(C)c2ccccc12` [Example 40, (E)-3-fluoro-N′-isopropyl-N′-(3-(1-methyl-1H-indol-3-yl)acryloyl)benzohydrazide], for which the activity at 10 µM with HepG2 cells amounted to 90%. On human DGAT2 (setting [1]), the inhibition at 10 µM turned out to be 2.2%. In addition, at human DGAT1, the IC50 is over 100 µM.
Regarding `CC(C)=CCn1cc(/C=C/C(=O)N(NC(=O)c2cccc(F)c2)C(C)C)c2ccccc21` [Example 34], in the assay with HepG2 cells, the activity at 10 µM was 58%. Also, the inhibition at 10 µM on human DGAT2 (setting [1]) amounted to 18.5%. Further, the 50% inhibitory concentration (IC50) on human DGAT1 was determined as 7.2 µM.
With `CC(C)=CCn1cc(/C=C/C(=O)N(NC(=O)c2ccc(C)cc2)C(C)C)c2ccccc21` [Example 51, (E)-N′-isopropyl-4-methyl-N′-(3-(1-(3-methylbut-2-enyl)-1H-indol-3-yl)acryloyl)benzohydrazide], on human DGAT2 (setting [1]), the inhibition at 10 µM amounted to 37.1%. Further, the IC50 on human DGAT1 worked out at 9.9 µM.
